Measurements published in article PMC9851200, “Multiparameter phenotypic screening for endogenous TFEB and TFE3 translocation identifies novel chemical series modulating lysosome function” (Autophagy, 2022).

Experiments:
Format in all cases: binding
[1] = biological target: kinases (KINOMEscan panel) (Homo sapiens, UniProt P42685); conditions: kinase FRK; NEW KINOMEscan
[2] = biological target: kinases (KINOMEscan panel) (Homo sapiens, UniProt Q16816); conditions: PHKG1; NEW KINOMEscan
[3] = biological target: kinases (KINOMEscan panel) (Homo sapiens, UniProt P08069); conditions: kinase IGF1R; NEW KINOMEscan
[4] = biological target: T1, kinases (KINOMEscan panel) (Homo sapiens, UniProt Q8WXR4); conditions: MYO3B; NEW KINOMEscan
T1 sequence (Q8WXR4 1-1341): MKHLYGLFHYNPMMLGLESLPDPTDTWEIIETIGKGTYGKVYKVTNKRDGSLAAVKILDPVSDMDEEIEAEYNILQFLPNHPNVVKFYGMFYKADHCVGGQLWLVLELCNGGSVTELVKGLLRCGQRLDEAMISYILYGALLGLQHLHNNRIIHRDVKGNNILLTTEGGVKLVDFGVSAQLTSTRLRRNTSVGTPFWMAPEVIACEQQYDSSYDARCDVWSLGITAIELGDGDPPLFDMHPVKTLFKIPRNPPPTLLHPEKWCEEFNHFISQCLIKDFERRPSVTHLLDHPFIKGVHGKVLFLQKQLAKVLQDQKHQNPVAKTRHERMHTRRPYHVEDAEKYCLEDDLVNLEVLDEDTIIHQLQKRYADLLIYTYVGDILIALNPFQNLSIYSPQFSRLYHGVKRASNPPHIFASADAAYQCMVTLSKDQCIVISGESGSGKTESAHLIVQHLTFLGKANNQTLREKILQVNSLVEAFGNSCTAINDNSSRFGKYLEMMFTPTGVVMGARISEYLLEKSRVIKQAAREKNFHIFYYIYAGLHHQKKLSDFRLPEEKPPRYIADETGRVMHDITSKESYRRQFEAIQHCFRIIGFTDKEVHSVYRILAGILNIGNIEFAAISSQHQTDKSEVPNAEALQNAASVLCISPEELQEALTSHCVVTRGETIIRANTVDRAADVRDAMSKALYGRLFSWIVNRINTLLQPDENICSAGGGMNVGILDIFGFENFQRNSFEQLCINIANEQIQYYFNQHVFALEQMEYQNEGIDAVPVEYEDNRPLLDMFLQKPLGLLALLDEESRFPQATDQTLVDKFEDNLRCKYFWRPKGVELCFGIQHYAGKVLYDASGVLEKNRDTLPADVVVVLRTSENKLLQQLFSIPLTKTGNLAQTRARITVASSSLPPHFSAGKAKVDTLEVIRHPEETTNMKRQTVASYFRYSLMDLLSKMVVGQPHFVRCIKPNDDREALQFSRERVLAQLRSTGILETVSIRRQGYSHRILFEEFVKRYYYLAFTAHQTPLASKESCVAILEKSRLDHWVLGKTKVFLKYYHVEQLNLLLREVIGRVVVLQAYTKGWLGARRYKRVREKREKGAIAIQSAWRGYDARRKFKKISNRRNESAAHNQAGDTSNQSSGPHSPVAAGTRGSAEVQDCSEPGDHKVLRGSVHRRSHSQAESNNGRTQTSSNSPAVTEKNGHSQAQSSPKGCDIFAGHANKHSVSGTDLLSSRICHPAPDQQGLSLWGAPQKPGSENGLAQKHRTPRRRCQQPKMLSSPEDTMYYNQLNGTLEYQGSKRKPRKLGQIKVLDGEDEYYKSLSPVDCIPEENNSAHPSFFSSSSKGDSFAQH

[5] = biological target: kinases (KINOMEscan panel) (Homo sapiens, UniProt Q9H0K1); conditions: kinase SIK2; NEW KINOMEscan
[6] = biological target: kinases (KINOMEscan panel) (Homo sapiens, UniProt Q52WX2); conditions: SBK1; NEW KINOMEscan
[7] = biological target: T2, kinases (KINOMEscan panel) (Homo sapiens, UniProt P36888); conditions: NEW KINOMEscan; for KINOMEscan FLT3-autoinhibited: kinase FLT3-autoinhibited
T2 sequence (P36888 27-993): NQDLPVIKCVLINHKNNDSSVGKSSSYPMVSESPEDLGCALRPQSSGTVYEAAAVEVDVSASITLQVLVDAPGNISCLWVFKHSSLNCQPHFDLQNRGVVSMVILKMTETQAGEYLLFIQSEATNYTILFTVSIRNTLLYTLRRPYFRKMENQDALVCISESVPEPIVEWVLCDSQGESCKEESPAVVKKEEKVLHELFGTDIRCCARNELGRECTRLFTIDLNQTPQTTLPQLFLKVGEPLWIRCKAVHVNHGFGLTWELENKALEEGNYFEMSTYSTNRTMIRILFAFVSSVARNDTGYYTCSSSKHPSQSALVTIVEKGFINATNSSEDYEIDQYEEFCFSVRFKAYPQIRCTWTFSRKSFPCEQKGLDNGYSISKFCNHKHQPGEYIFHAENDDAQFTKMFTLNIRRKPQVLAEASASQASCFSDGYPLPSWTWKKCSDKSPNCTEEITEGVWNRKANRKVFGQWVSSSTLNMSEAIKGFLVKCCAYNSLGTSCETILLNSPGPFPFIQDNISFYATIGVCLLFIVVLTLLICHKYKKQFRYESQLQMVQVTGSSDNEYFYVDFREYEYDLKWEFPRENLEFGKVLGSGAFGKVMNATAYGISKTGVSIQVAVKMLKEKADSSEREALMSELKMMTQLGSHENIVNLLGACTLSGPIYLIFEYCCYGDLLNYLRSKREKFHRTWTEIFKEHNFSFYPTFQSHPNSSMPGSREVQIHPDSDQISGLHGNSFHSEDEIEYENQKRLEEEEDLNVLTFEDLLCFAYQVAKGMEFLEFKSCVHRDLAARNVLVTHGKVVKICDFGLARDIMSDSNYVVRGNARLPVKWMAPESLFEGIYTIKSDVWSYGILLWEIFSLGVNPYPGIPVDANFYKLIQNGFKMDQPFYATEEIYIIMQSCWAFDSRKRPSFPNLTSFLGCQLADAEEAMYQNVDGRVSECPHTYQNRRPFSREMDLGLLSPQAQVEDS

[8] = biological target: kinases (KINOMEscan panel) (Homo sapiens, UniProt Q9H1R3); conditions: MYLK2; NEW KINOMEscan
[9] = biological target: kinases (KINOMEscan panel) (Homo sapiens, UniProt Q9UQM7); conditions: kinase CAMK2A; NEW KINOMEscan
[10] = biological target: kinases (KINOMEscan panel) (Homo sapiens, UniProt Q9H4A3); conditions: NEW KINOMEscan

Sequence of kinases (KINOMEscan panel) (Homo sapiens, UniProt Q16816) (Q16816 whole entry): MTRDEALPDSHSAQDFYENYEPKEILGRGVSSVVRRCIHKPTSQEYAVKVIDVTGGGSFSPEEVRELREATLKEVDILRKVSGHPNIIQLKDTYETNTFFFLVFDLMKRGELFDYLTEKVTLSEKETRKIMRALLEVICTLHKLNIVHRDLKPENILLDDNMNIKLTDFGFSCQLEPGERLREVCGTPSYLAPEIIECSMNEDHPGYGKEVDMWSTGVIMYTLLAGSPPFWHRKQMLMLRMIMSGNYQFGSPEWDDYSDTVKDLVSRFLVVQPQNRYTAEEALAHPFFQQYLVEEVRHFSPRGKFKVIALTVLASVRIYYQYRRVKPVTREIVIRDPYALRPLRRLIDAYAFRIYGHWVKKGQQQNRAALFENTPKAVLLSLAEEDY
Sequence of kinases (KINOMEscan panel) (Homo sapiens, UniProt P42685) (P42685 whole entry): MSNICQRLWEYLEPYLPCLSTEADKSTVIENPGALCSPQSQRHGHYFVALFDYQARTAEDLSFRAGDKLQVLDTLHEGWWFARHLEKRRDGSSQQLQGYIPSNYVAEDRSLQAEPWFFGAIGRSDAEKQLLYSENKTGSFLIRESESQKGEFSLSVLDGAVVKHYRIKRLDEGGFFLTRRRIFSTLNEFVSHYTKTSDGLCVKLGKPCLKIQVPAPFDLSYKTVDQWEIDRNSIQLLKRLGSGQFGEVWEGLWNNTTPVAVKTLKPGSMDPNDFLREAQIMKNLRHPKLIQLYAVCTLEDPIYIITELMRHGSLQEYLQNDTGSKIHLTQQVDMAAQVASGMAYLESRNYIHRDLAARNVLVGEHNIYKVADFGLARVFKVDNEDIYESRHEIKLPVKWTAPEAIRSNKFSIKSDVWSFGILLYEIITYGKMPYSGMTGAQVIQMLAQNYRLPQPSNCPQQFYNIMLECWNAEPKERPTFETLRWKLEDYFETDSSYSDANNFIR
Sequence of kinases (KINOMEscan panel) (Homo sapiens, UniProt P08069) (P08069 31-1367): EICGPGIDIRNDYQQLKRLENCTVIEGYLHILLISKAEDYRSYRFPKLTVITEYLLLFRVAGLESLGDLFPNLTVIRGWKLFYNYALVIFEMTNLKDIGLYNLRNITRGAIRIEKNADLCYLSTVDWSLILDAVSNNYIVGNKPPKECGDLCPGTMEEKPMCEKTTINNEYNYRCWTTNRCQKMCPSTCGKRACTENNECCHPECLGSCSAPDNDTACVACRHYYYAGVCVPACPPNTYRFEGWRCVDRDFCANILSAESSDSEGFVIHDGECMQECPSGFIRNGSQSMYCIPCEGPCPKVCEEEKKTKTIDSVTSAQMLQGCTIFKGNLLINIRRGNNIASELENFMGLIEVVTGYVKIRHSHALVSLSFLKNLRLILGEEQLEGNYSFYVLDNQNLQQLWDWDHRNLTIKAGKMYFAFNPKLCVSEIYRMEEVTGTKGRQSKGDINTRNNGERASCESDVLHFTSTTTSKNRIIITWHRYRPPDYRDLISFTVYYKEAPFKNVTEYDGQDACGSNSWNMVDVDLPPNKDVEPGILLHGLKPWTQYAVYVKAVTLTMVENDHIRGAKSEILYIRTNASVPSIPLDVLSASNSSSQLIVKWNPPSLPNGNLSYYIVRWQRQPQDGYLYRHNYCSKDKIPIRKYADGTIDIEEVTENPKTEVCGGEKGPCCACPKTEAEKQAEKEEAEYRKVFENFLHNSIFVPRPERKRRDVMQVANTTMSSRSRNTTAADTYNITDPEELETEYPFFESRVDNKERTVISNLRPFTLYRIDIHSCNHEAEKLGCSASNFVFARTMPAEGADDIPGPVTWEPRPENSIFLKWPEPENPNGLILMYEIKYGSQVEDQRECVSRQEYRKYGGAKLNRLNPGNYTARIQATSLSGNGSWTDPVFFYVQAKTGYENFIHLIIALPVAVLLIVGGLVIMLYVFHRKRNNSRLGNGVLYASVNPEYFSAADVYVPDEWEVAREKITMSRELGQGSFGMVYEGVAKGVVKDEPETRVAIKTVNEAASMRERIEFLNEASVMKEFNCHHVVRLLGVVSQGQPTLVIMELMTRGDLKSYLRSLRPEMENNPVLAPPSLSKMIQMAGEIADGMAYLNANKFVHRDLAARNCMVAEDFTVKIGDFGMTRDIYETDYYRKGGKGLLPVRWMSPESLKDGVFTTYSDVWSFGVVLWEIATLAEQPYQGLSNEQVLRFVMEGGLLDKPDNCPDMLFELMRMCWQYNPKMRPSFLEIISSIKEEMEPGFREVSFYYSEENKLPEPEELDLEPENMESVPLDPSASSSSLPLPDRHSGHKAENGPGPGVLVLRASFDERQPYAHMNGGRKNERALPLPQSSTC
Sequence of kinases (KINOMEscan panel) (Homo sapiens, UniProt Q9UQM7) (Q9UQM7 whole entry): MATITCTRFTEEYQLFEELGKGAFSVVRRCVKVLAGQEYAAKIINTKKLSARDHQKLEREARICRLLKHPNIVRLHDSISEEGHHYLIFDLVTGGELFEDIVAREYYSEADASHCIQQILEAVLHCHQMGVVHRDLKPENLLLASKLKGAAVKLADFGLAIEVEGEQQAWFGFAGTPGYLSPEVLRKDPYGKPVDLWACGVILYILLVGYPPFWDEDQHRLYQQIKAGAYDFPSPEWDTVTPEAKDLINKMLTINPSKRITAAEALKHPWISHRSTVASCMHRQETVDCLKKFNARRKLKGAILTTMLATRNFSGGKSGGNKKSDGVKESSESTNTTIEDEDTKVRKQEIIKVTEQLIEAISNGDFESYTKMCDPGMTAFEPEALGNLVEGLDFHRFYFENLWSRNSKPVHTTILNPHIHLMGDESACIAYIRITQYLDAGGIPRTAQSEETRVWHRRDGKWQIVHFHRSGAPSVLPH
Sequence of kinases (KINOMEscan panel) (Homo sapiens, UniProt Q9H1R3) (Q9H1R3 whole entry): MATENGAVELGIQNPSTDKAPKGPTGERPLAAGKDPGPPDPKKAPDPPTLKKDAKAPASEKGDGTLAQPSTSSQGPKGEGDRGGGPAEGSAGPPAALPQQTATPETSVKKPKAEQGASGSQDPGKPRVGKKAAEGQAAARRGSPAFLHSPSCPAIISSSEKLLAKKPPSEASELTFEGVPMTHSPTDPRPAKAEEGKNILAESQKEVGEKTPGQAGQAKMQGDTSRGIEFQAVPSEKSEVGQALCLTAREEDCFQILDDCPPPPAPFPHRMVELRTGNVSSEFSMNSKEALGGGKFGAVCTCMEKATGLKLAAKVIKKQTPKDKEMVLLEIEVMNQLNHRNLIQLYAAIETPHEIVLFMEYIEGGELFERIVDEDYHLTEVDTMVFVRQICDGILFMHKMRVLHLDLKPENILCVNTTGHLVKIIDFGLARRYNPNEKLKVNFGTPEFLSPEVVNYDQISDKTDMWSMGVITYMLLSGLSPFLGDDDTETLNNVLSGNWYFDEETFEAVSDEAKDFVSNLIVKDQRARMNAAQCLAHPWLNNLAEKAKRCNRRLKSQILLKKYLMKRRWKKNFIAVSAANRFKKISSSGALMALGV
Sequence of kinases (KINOMEscan panel) (Homo sapiens, UniProt Q52WX2) (Q52WX2 whole entry): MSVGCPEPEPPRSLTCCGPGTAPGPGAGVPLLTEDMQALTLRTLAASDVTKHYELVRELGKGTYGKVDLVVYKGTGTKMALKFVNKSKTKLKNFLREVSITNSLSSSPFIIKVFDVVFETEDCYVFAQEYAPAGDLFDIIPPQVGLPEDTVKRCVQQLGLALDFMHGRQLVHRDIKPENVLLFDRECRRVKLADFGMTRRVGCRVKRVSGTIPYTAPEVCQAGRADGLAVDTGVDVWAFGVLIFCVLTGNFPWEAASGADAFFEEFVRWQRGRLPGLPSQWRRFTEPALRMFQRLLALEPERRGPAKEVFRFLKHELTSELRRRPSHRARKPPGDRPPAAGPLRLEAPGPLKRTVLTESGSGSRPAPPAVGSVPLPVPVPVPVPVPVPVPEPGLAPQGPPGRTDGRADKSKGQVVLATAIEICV
Sequence of kinases (KINOMEscan panel) (Homo sapiens, UniProt Q9H0K1) (Q9H0K1 whole entry): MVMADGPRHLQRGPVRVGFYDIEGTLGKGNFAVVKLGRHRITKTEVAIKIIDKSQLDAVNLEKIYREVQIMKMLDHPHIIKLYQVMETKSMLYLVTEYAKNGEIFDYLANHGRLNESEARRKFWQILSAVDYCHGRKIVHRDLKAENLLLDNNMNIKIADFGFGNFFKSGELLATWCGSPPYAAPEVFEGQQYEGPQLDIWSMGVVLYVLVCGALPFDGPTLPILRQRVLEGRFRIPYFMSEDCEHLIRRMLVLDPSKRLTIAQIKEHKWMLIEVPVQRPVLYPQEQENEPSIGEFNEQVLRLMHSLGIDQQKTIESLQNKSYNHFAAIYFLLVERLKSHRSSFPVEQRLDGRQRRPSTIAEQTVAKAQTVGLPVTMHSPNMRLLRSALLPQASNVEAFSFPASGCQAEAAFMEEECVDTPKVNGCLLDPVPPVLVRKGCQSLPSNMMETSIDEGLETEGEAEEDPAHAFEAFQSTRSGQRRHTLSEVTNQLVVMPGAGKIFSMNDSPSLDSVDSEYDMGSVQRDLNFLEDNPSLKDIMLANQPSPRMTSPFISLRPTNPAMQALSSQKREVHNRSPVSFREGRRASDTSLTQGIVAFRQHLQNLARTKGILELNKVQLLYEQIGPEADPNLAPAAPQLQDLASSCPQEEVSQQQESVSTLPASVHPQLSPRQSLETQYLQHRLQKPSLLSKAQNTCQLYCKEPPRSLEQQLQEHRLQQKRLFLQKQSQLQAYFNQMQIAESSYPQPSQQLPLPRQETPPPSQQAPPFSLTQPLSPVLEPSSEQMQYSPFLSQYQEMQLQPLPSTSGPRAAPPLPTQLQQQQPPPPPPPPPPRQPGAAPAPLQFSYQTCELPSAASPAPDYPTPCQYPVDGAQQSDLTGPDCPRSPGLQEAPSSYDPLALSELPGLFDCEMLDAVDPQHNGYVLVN

| Structure (SMILES) | KINOMEscan FRK [1] | KINOMEscan PHKG1 [2] | KINOMEscan IGF1R [3] | KINOMEscan MYO3B [4] | KINOMEscan SIK2 [5] | KINOMEscan SBK1 [6] | KINOMEscan FLT3 [7] | KINOMEscan FLT3-autoinhibited [7] | KINOMEscan MYLK2 [8] | KINOMEscan CAMK2A [9] | KINOMEscan WNK1 [10] |
| --- | --- | --- | --- | --- | --- | --- | --- | --- | --- | --- | --- |
| Cc1cccc(-c2nc(N(C)c3ccc4ncsc4c3)c3ccccc3n2)n1 [NK-161] | 0 | 5 | 14 | 1 | 0 | 0 | 0 | 0 | 9 | 0 | 9 |
| Cc1cccc(-c2nc(Nc3ccc4nn(C)cc4c3)c3ccccc3n2)n1 [NK167] | 0 | 5 | 0 | 0 | 0 | 0 | 0 | 0 | 0 | 0 | 0 |
